# Peptide text beside a SMILES is read from it.
# Test system: mTOR, Raptor, RagA, p14
# Test: APEX2 proximity biotinylation with streptavidin enrichment and immunoblotting in HEK293T cells
# Format: cell-based
# Details: for mTOR, Raptor and RagA found in the proximity of the galectin: APEX2-galectin fusions
# Method: (A) Analysis of the puncta formation of galectins in response to GPN. HeLa cells overexpressing YFP-fused with the indicated galectins were treated with 100 μM GPN or without (Ctrl) in full medium for 1 h and galectin puncta were quantified by HC. […] White masks, algorithm defined cell boundaries (primary objects); green masks, computer-identified galectins puncta (target objects). Data, means±SEM, n≥3 independent experiments (500 primary objects counted per well; ≥5 wells/sample per each experiment); *p<0.05, **p<0.01, † p≥0.05, ANOVA. (B) Immunoprecipitation analysis of the interactions between galectins and mTOR or RagA GTPase. HEK293T cells overexpressing FLAG-tagged galectins were subjected to anti-FLAG immunoprecipitation followed by immunoblotting for endogenous mTOR or RagA. (C) Immunoprecipitation analysis of interactions between Gal8 and mTOR protein complexes in response to GPN treatment. THP-1 cells not treated or treated with 100 μM GPN in full medium for 1 h were subjected to immunoprecipitation with anti-Gal8 antibody, followed by immunoblotting for endogenous RagA, p14, mTOR or Raptor. (D) Analysis of the proximity of Gal8 to mTOR and other proteins in mTOR complexes in response to GPN. Biotinylated proteins from HEK293T cell expressing APEX2-vector or APEX2-Gal8, after GPN and biotin phenol (BP) treatment were affinity-enriched by binding to streptavidin-beads, and samples were analyzed by immunoblotting analysis for endogenous RagA, p14, mTOR or Raptor. Data, means±SEM, (n=3), **p<0.01, ANOVA. (E) Immunoprecipitation analysis of the interactions between Gal8 and RagA GTPase and its mutants. Lysates of HEK293T cells overexpressing FLAG-Gal8 and HA-tagged RagA proteins (RagAWT, RagAT21L or RagAQ66L) were subjected to anti-FLAG immunoprecipitation, followed by immunoblotting for HA-tagged RagA proteins. (F) Immunoprecipitation analysis of the interactions between Gal8 and RagC GTPase and its mutants. HEK293T cells overexpressing FLAG-Gal8 and HA-tagged RagC proteins (RagCWT, RagCS75L or RagCQ120L) lysates were subjected to anti-FLAG immunoprecipitation, followed by immunoblotting for HA-tagged RagC proteins.
# HEK293T cells transfected with pJJiaDEST-APEX2 or pJJiaDEST-APEX2-Gal8 were incubated with 100 μM GPN (Cayman Chemicals) in full medium for 1 h (confluence of cells remained at 70-80%). Cells were next incubated in 500 μM biotin-phenol (AdipoGen) in full medium for the last 30 min of GPN incubation. A 1 min pulse with 1 mM H2O2 at room temperature was stopped with quenching buffer (10 mM sodium ascorbate, 10 mM sodium azide and 5 mM Trolox in Dulbecco's Phosphate Buffered Saline (DPBS)). All samples were washed twice with quenching buffer, and twice with DPBS.
# For immunoblotting analysis, cell pellets were lysed with 500 μL ice-cold RIPA lysis buffer (ThermoFisher Scientific) with protease inhibitor cocktail (Roche), 1 mM PMSF (sigma), 10 mM sodium ascorbate, 10 mM sodium azide and 5 mM Trolox, gently pipetted and then the incubated for 30 min. The lysates were clarified by centrifugation at 13,000 rpm for 5 min, followed by measuring protein concentrations using a Pierce BCA Protein Assay kit, with freshly made bovine serum albumin (BSA) solutions as standards. Streptavidin-coated magnetic beads (ThermoFisher Scientific) were washed with RIPA lysis buffer. 3 mg of each sample was mixed with 100 μL of streptavidin beads. […] 15 μL of each sample was separated by SDS-PAGE and analyzed by Western blot using indicated antibodies.
Molecule,"proximity of Gal8 to Ragulator (LAMTOR2/p14) and RagA (APEX2-Gal8 HEK293T, GPN)","proximity of Gal8 to mTOR and Raptor (APEX2-Gal8 HEK293T, GPN)","mTOR, Raptor and RagA found in the proximity of the galectin"
"NCC(=O)N[C@@H](Cc1ccccc1)C(=O)Nc1ccc2ccccc2c1 [GPN, glycyl-L-phenylalanine 2-naphththylamide] (HELM PEPTIDE1{G.F.[c1ccc2cc(N[*:1])ccc2c1]}$$$$V2.0)",increased proximity,decreased proximity,
Gal9: beta-galactoside-binding lectin protein of the galectin family,,,not in the proximity
Gal8: protein of the galectin family encoded by the gene LGALS8; beta-galactoside-binding lectin,,,in the proximity
